Experimental data from US6858591B2, “Antibiotic AA 896 analogs” (Wyeth Holdings Corporation, priority 2001, dated 2005).
In brackets after ≈: the same amount, converted by molar mass. Like-named read-outs stand apart in the source and are kept apart here.

Experiments:
Assay in all cases: In vitro MIC, broth dilution
Assay type in all cases: cell-based
E. coli GC 2203 = conditions: Escherichia coli, GC2203
S. marcescens GC 4077 = conditions: Serratia marcescens, GC4077
E. coli GC 3226 = conditions: Escherichia coli, GC3226
K. pneumoniae GC 4534 = conditions: Klebsiella pneumoniae, GC4534
E. coli GC 4560 = conditions: Escherichia coli, GC4560
P. aeruginosa GC 4532 = conditions: Pseudomonas aeruginosa, GC4532
P. aeruginosa GC 2214 = conditions: Pseudomonas aeruginosa, GC2214
E. coli GC 4559 = conditions: Escherichia coli, GC4559
CNS GC 4547 = tested on: CNS GC 4547
Method: (§1) The minimum inhibitory concentration (MIC), the lowest concentration of the antibiotic which inhibits growth of the test organism, is determined by the broth dilution method using Muller-Hinton II […] (Baltimore Biological Laboratories) following the recommendations of National Committee for Clinical Laboratory Standards. [Reference for the Methods for dilution antimicrobial susceptibility tests for bacteria that grow aerobically: National Committee for Clinical Laboratory Standards, 1997. Approved standard M7-A National Committee for Clinical Laboratory Standards, Wayne, Pa.] An inoculum level of 5×10^5 CFU/ml, and a range of antibiotic concentrations (64-0.06 μg/ml) is used. The MIC is determined after the microtiter plates are incubated for 18 hours at 35° C. in an ambient air incubator. The test organisms comprise a spectrum of gram-positive bacteria including Staphylococcus sp., Streptococcus sp. and Enterococcus sp. These organisms include recent clinical isolates that are resistant to methicillin, penicillin and vancomycin.

S. aureus GC 1131 = conditions: Staphylococcus aureus, GC1131
Method: as §1

E. faecalis GC 842 = conditions: Enterococcus faecalis, GC842
Method: as §1

E. faecalis GC 4555 = conditions: Enterococcus faecalis, GC4555
Method: as §1

CNS GC 4537 = tested on: CNS GC 4537
Method: as §1

CNS GC 4538 = tested on: CNS GC 4538
Method: as §1

S. aureus GC 4536 = conditions: Staphylococcus aureus, GC4536
Method: as §1

S. aureus GC 2216 = conditions: Staphylococcus aureus, GC2216
Method: as §1

E. faecalis GC 2242 = conditions: Enterococcus faecalis, GC2242
Method: as §1

C. albicans GC 3066 = conditions: Candida albicans, GC3066
E. cloacae GC 3783 = conditions: Enterobacter cloacae, GC3783
M. morganii GC 4531 = conditions: Morganella morganii, GC4531

COc1ccc(Cn2c(=O)ccn([C@@H]3OC([C@H](O)[C@H](NCCCNC(=O)[C@@H](NC(=O)OCc4ccccc4)[C@H](C)O)C(=O)OC(C)(C)C)[C@@H](O[Si](C)(C)C(C)(C)C)[C@H]3O[Si](C)(C)C(C)(C)C)c2=O)cc1 (stereo partly drawn) [Example 10, tert-Butyl (5S,12S)-12-[(R)-[(3R,4R,5R)-3,4-bis{[tert-butyl(dimethyl)silyl]oxy}-5-(3-(4-methoxybenzyl)-2,4-dioxo-3,4-dihydro-1(2H)-pyrimidinyl)tetrahydro-2-furanyl](hydroxy)methyl]-5-[(1S)-1-hydroxyethyl]-3,6-dioxo-1-phenyl-2-oxa-4,7,11-triazatridecan-13-oate]
MIC (E. coli GC 2203): > 128 µg/mL
MIC (S. marcescens GC 4077): > 128 µg/mL
MIC (E. coli GC 3226): > 128 µg/mL
MIC (K. pneumoniae GC 4534): > 128 µg/mL
MIC (E. coli GC 4560): > 128 µg/mL
MIC (P. aeruginosa GC 4532): > 128 µg/mL
MIC (P. aeruginosa GC 2214): > 128 µg/mL
MIC (E. coli GC 4559): > 128 µg/mL
MIC (CNS GC 4547): > 128 µg/mL
MIC (S. aureus GC 1131): > 128 µg/mL
MIC (E. faecalis GC 842): > 128 µg/mL
MIC (E. faecalis GC 4555): > 128 µg/mL
MIC (CNS GC 4537): > 128 µg/mL
MIC (CNS GC 4538): > 128 µg/mL
MIC (S. aureus GC 4536): > 128 µg/mL
MIC (S. aureus GC 2216): > 128 µg/mL
MIC (E. faecalis GC 2242): 128 µg/mL (≈ 126 µM)
MIC (C. albicans GC 3066): 128 µg/mL (≈ 126 µM)
MIC (E. cloacae GC 3783): > 128 µg/mL
MIC (M. morganii GC 4531): > 128 µg/mL

COc1ccc(Cn2c(=O)ccn([C@@H]3OC([C@H](O)[C@H](NCCCNC(=O)[C@@H](N)[C@H](C)O)C(=O)OC(C)(C)C)[C@@H](O[Si](C)(C)C(C)(C)C)[C@H]3O[Si](C)(C)C(C)(C)C)c2=O)cc1 (stereo partly drawn) [Example 11, tert-Butyl (2S,3R)-2-[(3-{[(2S,3S)-2-amino-3-hydroxybutanoyl]amino}propyl)amino]-3-[(3R,4R,5R)-3,4-bis{[tert-butyl(dimethyl)silyl]oxy}-5-(3-(4-methoxybenzyl)-2,4-dioxo-3,4-dihydro-1(2H)-pyrimidinyl)tetrahydro-2-furanyl]-3-hydroxypropanoate]
MIC (E. coli GC 2203; E. coli GC 2203, read-out: MIC): > 128 µg/mL
MIC (S. marcescens GC 4077; S. marcescens GC 4077, read-out: MIC): > 128 µg/mL
MIC (E. coli GC 3226; E. coli GC 3226, read-out: MIC): > 128 µg/mL
MIC (K. pneumoniae GC 4534; K. pneumoniae GC 4534, read-out: MIC): > 128 µg/mL
MIC (E. coli GC 4560; E. coli GC 4560, read-out: MIC): > 128 µg/mL
MIC (P. aeruginosa GC 4532; P. aeruginosa GC 4532, read-out: MIC): > 128 µg/mL
MIC (P. aeruginosa GC 2214; P. aeruginosa GC 2214, read-out: MIC): 128 µg/mL (≈ 145 µM)
MIC (E. coli GC 4559; E. coli GC 4559, read-out: MIC): > 128 µg/mL
MIC (CNS GC 4547; CNS GC 4547, read-out: MIC): 8 µg/mL (≈ 9.09 µM)
MIC (S. aureus GC 1131; S. aureus GC 1131, read-out: MIC): 8 µg/mL (≈ 9.09 µM)
MIC (E. faecalis GC 842; E. faecalis GC 842, read-out: MIC): 4 µg/mL (≈ 4.54 µM)
MIC (E. faecalis GC 4555; E. faecalis GC 4555, read-out: MIC): 4 µg/mL (≈ 4.54 µM)
MIC (CNS GC 4537; CNS GC 4537, read-out: MIC): 4 µg/mL (≈ 4.54 µM)
MIC (CNS GC 4538; CNS GC 4538, read-out: MIC): 4 µg/mL (≈ 4.54 µM)
MIC (S. aureus GC 4536; S. aureus GC 4536, read-out: MIC): 4 µg/mL (≈ 4.54 µM)
MIC (S. aureus GC 2216; S. aureus GC 2216, read-out: MIC): 4 µg/mL (≈ 4.54 µM)
MIC (E. faecalis GC 2242; E. faecalis GC 2242, read-out: MIC): 8 µg/mL (≈ 9.09 µM)
MIC (C. albicans GC 3066; C. albicans GC 3066, read-out: MIC): > 128 µg/mL
MIC (E. cloacae GC 3783; E. cloacae GC 3783, read-out: MIC): > 128 µg/mL
MIC (M. morganii GC 4531; M. morganii GC 4531, read-out: MIC): > 128 µg/mL

COc1ccc(Cn2c(=O)ccn([C@@H]3OC([C@H](O)[C@H](NCCCNC(=O)[C@H](Cc4ccccc4)NC(=O)OCc4ccccc4)C(=O)OC(C)(C)C)[C@@H](O[Si](C)(C)C(C)(C)C)[C@H]3O[Si](C)(C)C(C)(C)C)c2=O)cc1 (stereo partly drawn) [Example 12, tert-Butyl (5S,12S)-5-benzyl-12-[(R)-[(3R,4R,5R)-3,4-bis{[tertbutyl(dimethyl)silyl]oxy}-5-(3-(4-methoxybenzyl)-2,4-dioxo-3,4-dihydro-1(2H)-pyrimidinyl)tetrahydro-2-furanyl](hydroxy)methyl]-3,6-dioxo-1-phenyl-2-oxa-4,7,11-triazatridecan-13-oate]
MIC (E. coli GC 2203): > 128 µg/mL
MIC (S. marcescens GC 4077): 128 µg/mL (≈ 121 µM)
MIC (E. coli GC 3226): > 128 µg/mL
MIC (K. pneumoniae GC 4534): > 128 µg/mL
MIC (E. coli GC 4560): 128 µg/mL (≈ 121 µM)
MIC (P. aeruginosa GC 4532): 128 µg/mL (≈ 121 µM)
MIC (P. aeruginosa GC 2214): 128 µg/mL (≈ 121 µM)
MIC (E. coli GC 4559): > 128 µg/mL
MIC (CNS GC 4547): 128 µg/mL (≈ 121 µM)
MIC (S. aureus GC 1131): > 128 µg/mL
MIC (E. faecalis GC 842): 128 µg/mL (≈ 121 µM)
MIC (E. faecalis GC 4555): 128 µg/mL (≈ 121 µM)
MIC (CNS GC 4537): > 128 µg/mL
MIC (CNS GC 4538): > 128 µg/mL
MIC (S. aureus GC 4536): > 128 µg/mL
MIC (S. aureus GC 2216): > 128 µg/mL
MIC (E. faecalis GC 2242): 128 µg/mL (≈ 121 µM)
MIC (C. albicans GC 3066): 128 µg/mL (≈ 121 µM)
MIC (E. cloacae GC 3783): 128 µg/mL (≈ 121 µM)
MIC (M. morganii GC 4531): 128 µg/mL (≈ 121 µM)
